Consider two molecules from patent US12264175B2, “Compositions and methods for capping RNAS” (Verve Therapeutics, Inc., priority 2020, dated 2025).

Bounds are passed on as bounds.

The target of assay [1] is T1, T7 RNA polymerase (Escherichia phage T7, UniProt P00573). In words: One-pot IVT preparation of 5′ capped mRNA (production yield, full-length purity). The class given is biochemical. The source says: The 5′ end initiator, 1007a, (FIG. 1A) was used to prepare capped mRNAs that encode for ABE and luciferase proteins. In this Example and for all others described herein, the ABE mRNA sequence was MA004 (SEQ. 0001) and the luciferase mRNA sequence was the Photinus pyralis (Firefly) luciferase sequence described in NCBI reference sequence XM_031473197.1. These mRNA can be produced by different methods well known in the art. One of such methods used herein was in vitro transcription (IVT) using T7 polymerase; or in other embodiments, additional RNA polymerase variants. This IVT reaction to produce mRNA used a linearized DNA template that comprised a T7 polymerase promoter and associated regulatory sequences, mRNA coding sequence (CDS), 3′ and 5′ untranslated regions (UTRs), poly A tail, and additional sequence elements to facilitate and modulate mRNA stability and in vivo performance. Prior to IVT, the DNA template was in the form of a plasmid; in other embodiments the DNA template is in the form of a PCR product, synthetic DNA product, or any other double-stranded DNA construct. Linearization of the DNA template with a restriction digestion enzyme was performed in order to promote run-off transcription. The typical IVT reaction included T7 polymerase, DNA template, RNase inhibitor, cap analog, inorganic pyrophosphatase, and the naturally occurring ribonucleoside triphosphates (NTPs) such as GTP, ATP, CTP, and N1-methyl pseudouridine triphosphosphate; in some embodiments NTPs include UTP or modified NTPs such as pseudouridine, 5′methyl cytidine, 5-methoxy uridine, N6-methyl adenosine, and N4-acetyl cytidine. The 1007a 5′ end initiator was added to the IVT reaction along with ATP, GTP, CTP, and N1-methyl pseudouridine triphosphate at a 1:1 initiator-to-NTP molar ratio and additional ratios described in Example 5 (B). Poly A tail was encoded in the DNA template that was added to the mRNA during transcription; in some instances, poly A tail is added to the mRNA after the IVT reaction using an RNA ligase enzyme. Finally, T7 RNA polymerase was added to the mixture and the IVT reaction was run at 37° C. for about 1-4 hours. After IVT, DNase was added to the transcription mixture to remove DNA template; in some instances, residual DNA is removed with chromatography. This mRNA was purified to remove residual reaction products and impurities, and stored in 1 mM citrate buffer. Characterization of production yield and mRNA full-length purity was performed by UV spectrometry and capillary gel electrophoresis methods, which are known in the art. […] Similar IVT and purification process are used to produce mRNA encoding SpCas9, Cas12b, CBE, and other ABEs; in all cases the DNA template, reaction conditions, and purification parameters are optimized for the specific gene of interest.
Similarly, ABE encoding mRNA with 5′ end region, 1107a, (FIG. 1B) was produced and characterized as described in the paragraph above.

The target of assay [2] is T1, T7 RNA polymerase. In words: mRNA capping efficiency at adjusted 5′ end initiator-to-NTP molar ratio. The class given is biochemical. Conditions: initiator-to-NTP ratio ranging from 1:1 down to 1:1.67; FIG. 4. The source says:
The amount of capped mRNA produced in an IVT reaction is directly proportional to the ratio of cap to NTPs in the reaction mixture (Stepinski, J. et al., RNA. 2006, 7, 1486-1495). The 5′ end initiator-to-NTP ratio in an IVT reaction impacts the amount of mRNA that becomes capped primarily because cap can compete with NTPs for insertion at the 5′ end of mRNA. A typical initiator-to-NTP ratio for a dinucleotide cap structure is 4:1 and a typical molar initiator-to-NTP ratio for a trinucleotide cap structure is 1:1; where NTP represents either GTP, ATP, CTP, UTP, or modified NTPs such as N1-methyl pseudouridine. At both a 4:1 ratio for a dinucleotide cap and 1:1 ratio for a trinucleotide cap, the resultant mRNA will have a mixture of transcripts of which at least 80% are capped at the 5′ end and up to 20% are uncapped, this is also described as a capping efficiency of 80%. Capping efficiency is the measured amount of capped mRNA divided by the total amount of capped mRNA plus uncapped mRNA. Therefore, trinucleotide caps can be considered more efficient capping compounds than dinucleotide caps since less input cap is required to produce a final mRNA product that contains a similar amount of capped 5′ ends. The ability of trinucleotide caps to produce a high (>90%) capping efficiency at a lower initiator-to-NTP ratio than dinucleotide caps, in some instances, can be attributed to the increased affinity of a trinucleotide cap for the DNA template. In some cases, the optimal cap-to-NTP ratio may vary with the composition of the cap structure, wherein modification of cap structures may affect capping efficiency. […]
The amount of capped mRNA relative to the total amount of mRNA that is present, i.e. capping efficiency, can be measured by numerous methods well known in the art. […]

The test system of assay [3] is primary human liver hepatocytes (hPH). In words: ABE protein levels by ELISA after mRNA transfection of primary human hepatocytes. The format is cell-based. To be noted: ABE mRNA transfected to hPH cells, FIG. 6. On the procedure:
Primary human liver hepatocytes (hPH), primary cynomolgus liver hepatocytes (cPH), or primary mouse liver hepatocytes (mPH) are cultured per the manufacturer's protocol. In brief, the cells are thawed and resuspended in hepatocyte thawing medium followed by centrifugation at 100 g for 10 min at 4° C. The supernatant is discarded, and the pelleted cells resuspended in hepatocyte plating medium. Each vial contains ˜5 million cells that are used for plating one 24-well plate. Plated cells are allowed to settle and adhere for 4-6 h in a tissue culture incubator at 37° C. under 5% CO2 atmosphere. After incubation, cells are checked for monolayer formation. The incubating media is then replaced with fresh hepatocyte maintenance media The cells thus are ready for transfection using a transfection agent such as MessengerMAX. Solution A: desired amount of single guide RNA (sgRNA) is mixed with 1:1 wt ratio of mRNA in OptiMEM. Solution B: MessengerMAX in OptiMEM. After mixing solutions A and B, the mixture is incubated at room temperature for 20 minutes, and then the incubated solution is added dropwise to each well of cells. The cells are then allowed to remain at 37° C. for 3 days. […] For example, mRNA with 5′ end region motifs, 1007a and 1107a, were transfected to hPH cells as described above, the cells were lysed, and ABE protein levels were measured by ELISA. […]

The target in a further assay is T7 RNAP (Escherichia phage T7, UniProt P00573). To be noted: first initiating NTP / guanosine; J. Mol. Biol. (2007) 370, 256-268; cited from earlier work.
T7 RNAP, sequence (P00573 whole entry): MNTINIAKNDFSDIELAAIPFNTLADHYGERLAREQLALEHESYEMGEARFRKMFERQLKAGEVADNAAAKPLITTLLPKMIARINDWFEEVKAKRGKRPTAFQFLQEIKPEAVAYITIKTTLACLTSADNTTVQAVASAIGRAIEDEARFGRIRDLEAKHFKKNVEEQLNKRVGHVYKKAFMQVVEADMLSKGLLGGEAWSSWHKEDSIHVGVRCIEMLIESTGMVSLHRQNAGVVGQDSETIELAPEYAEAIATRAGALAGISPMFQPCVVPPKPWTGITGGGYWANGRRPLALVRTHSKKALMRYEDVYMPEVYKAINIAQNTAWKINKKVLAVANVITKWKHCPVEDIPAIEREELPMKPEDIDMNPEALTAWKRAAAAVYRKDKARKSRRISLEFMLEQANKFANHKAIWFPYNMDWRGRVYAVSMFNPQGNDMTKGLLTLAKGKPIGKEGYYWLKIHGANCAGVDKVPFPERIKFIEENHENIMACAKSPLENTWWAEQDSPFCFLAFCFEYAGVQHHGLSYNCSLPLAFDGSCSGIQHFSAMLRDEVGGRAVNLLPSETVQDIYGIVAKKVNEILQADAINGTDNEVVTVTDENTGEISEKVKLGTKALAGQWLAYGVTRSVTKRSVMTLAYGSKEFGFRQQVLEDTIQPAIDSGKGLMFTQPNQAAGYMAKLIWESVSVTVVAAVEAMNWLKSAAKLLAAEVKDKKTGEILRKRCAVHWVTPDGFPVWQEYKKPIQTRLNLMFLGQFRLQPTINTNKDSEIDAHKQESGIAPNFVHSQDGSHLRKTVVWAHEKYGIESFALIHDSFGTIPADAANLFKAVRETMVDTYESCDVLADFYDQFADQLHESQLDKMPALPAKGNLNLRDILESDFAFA

T1 sequence (P00573 whole entry): as above

In the case of `COC1C(OP(=O)(O)OCC2OC(n3cnc4c(=O)[nH]c(N)nc43)C(O)C2O)C(COP(=O)(O)OP(=O)([S-])OP(=O)(O)OCC2OC(n3c[n+](C)c4c(=O)[nH]c(N)nc43)C(O)C2O)OC1n1cnc2c(N)ncnc21` (stereo not drawn) [1107a, m^7G(ppsp)Am(p)G], the “final production yield of mRNA” value on T7 RNA polymerase [1] (ABE encoding mRNA made with the 5′ end initiator, T7 IVT, FIG. 2) is recorded as “about 3.3 mg per 1 ml of IVT reaction”. For the same molecule, the mRNA full-length purity result on T7 RNA polymerase [1] (ABE encoding mRNA made with the 5′ end initiator, capillary gel electrophoresis, FIG. 3) was “about 86%”. The “amount of full-length mRNA produced” value on T7 RNA polymerase [1] (initiator-to-NTP ratio ranging from 1:1 down to 1:5, FIG. 3) is “did not reduce”. At T7 RNA polymerase [2], the capping efficiency is greater than 90%. The “ABE protein levels as compared to mRNA with 5′ end region motif 1002a” value in assay [3] was “similar”.

By Kd is commonly meant the concentration at which binding is half-saturated. Take `Nc1nc2c(ncn2[C@@H]2O[C@H](COP(=O)(O)OP(=O)(O)OP(=O)(O)O)[C@@H](O)[C@H]2O)c(=O)[nH]1` [GTP]: the Kd on T7 RNAP is 2 mM.
